Data on 3 compounds can be found in patent US11957661B2, “JAK1 pathway inhibitors for the treatment of vitiligo” (Incyte Corporation, priority 2020, dated 2024).

The test system of assay [1] is Normal Human Melanocytes. As to the kind of experiment: Melanocyte proliferation assay with 20% CD8+ T cell conditioned media. Format: cell-based. The following applies: for suppressed melanocyte proliferation response: 1000 nM co-cultured with CD3/CD28-activated human CD8+ T cells, 20% conditioned media; for spontaneous proliferation compared to the natural melanocyte proliferation rate: added to the inflammatory culture media, time-dependent. How it is done:
The assay investigates an in vitro system using CD8+ T Cells and melanocytes. The assay tests whether Compound 1 modulates the inflammatory response and how such modulation affects melanocyte biology.
(§1) Methods: CD8+ T cell Conditioned Media Step: Normal Human CD8+ T Cells from peripheral blood were purchased ([…] Technologies). They were cultured for 48 hours at 37 C and 5% CO2 under activating and unactivating conditions inside the Incucyte Live-Cell Analysis System (Essen Bioscience). Activated T cells were cultured in a flat bottom 96 well plate (Costar) that was first coated with 10 ug/ml anti-CD3 (BD Biosciences) for 2 hours at room temperature and then washed one time with PBS before cells were added. They were grown in Melanocyte Growth Medium (NHM-GM, MatTek) containing 1 ug/ml anti-CD28 (BD Biosciences). Unactivated T cells were treated the same way except that they were cultured in a separate plate without anti-CD3 and anti-CD28. Each T cell plate was treated at seeding with Compound 1 (1000, 100, or 10 nM) or media alone. Each treatment was done in triplicate. After 48 hours, all the samples (T cells and media) were transferred to new V-bottom plates and centrifuged at 1300 RPMs for 10 minutes. Supernatants were collected from the T cell pellets carefully to not disturb the pellet. The supernatants (CD8+ T cell Conditioned Media) used fresh to treat the melanocyte. The remaining amounts were stored at −80 C and then thawed for protein analysis by Luminex technology (custom Procarta 45-plex, Thermo Fisher Scientific). The treated CD8+ T cell pellets were lysed using the Quantigene sample processing kit reagents following the kit instructions. Lysates were stored at −80 C and then thawed for RNA analysis by Luminex technology using two custom Quantigene 80-Plexes—150 targeted genes total (Thermo Fisher Scientific).
(§2) Melanocyte Proliferation Step: Normal Human Melanocytes isolated from a donor's neonatal foreskin epidermis were purchased (MatTek). They were thawed and seeded following manufacturer's instruction in NHM-GM media in flat bottom 96 well plates (Costar) for 18 hours at 37 C and 5% CO2. They were approximately 10% confluent when treated with 20% CD8+ T cell Conditioned Media (25 ul Conditioned media added to 100 ul of NHM-GM already in the wells). They were cultured for 48 hours at 37 C and 5% CO2 inside the Incucyte Live-Cell Analysis System (Essen Bioscience) with 5 images per well taken every 3 hrs. After 48 hours, all the supernatants were transferred from the melanocyte plates to new V-bottom plates and centrifuged at 1300 RPMs for 10 minutes. Supernatants were collected and were stored at −80 C and then thawed for protein analysis by Luminex technology (custom Procarta 45-plex, Thermo Fisher Scientific). The treated melanocytes were lysed using the Quantigene sample processing kit reagents following the kit instructions. Lysates were stored at −80 C and then thawed for RNA analysis by Luminex technology using two custom Quantigene 80-Plexes for a total of 150 targeted genes (Thermo Fisher Scientific). Incucyte images were analyzed using the Incucyte software and the percentage of melanocyte confluence was determined for each treatment.
The assay investigates an in vitro system using CD8+ T Cells and melanocytes. The assay tests whether ruxolitinib modulates the inflammatory response and how such modulation affects melanocyte biology. […]

The subject of assay [2] is CD3/CD28-activated human CD8+ T cells. Description: Protein analysis (Luminex) of CD8+ T cell conditioned media. Format: cell-based. The following applies: for LIF, T cells: T cell data. How it is done: as §1
as §1, with “ruxolitinib” for “Compound 1”

Assay [3] relates to Normal Human Melanocytes. Description: Protein analysis (Luminex) of melanocyte media after 20% CD8+ T cell conditioned media. Format: cell-based. The following applies: for IL-8, protein melanocyte media: melanocytes under stress conditions. Here is the method: as §2
For the next assay, the target named is human JAK1 (Homo sapiens, UniProt P23458). Description: In vitro JAK kinase assay (HTRF, Example A). Format: biochemical. The following applies: 1 mM ATP.
Another assay deals with human JAK2 (Homo sapiens (Human), UniProt O60674). As to the kind of experiment: In vitro JAK kinase assay (HTRF, Example A). In kind it is biochemical. The following applies: JAK2/JAK1 IC50 ratio, 1 mM ATP.
Sequence of human JAK2 (O60674 828-1132): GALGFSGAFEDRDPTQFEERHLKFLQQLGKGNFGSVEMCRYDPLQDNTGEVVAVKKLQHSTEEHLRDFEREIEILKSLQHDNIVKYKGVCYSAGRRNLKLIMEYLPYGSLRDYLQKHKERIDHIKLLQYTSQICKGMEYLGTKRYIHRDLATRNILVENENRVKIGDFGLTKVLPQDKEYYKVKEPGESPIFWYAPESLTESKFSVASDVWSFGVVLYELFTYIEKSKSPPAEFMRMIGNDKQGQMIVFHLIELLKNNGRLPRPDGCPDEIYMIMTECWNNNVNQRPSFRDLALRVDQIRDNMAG
Where [4] appears, read: co-cultured with CD3/CD28-activated human CD8+ T cells.
The mark [5] stands for this setting: melanocytes treated with activated T cell conditioned media.

Method for human JAK1: (§3) The catalytic activity of JAK1, JAK2 or JAK3 was assayed by measuring the phosphorylation of a biotinylated peptide. The phosphorylated peptide was detected by homogenous time resolved fluorescence (HTRF). […] Reactions were carried out at room temperature for 1 hour and then stopped with 20 μL 45 mM EDTA, 300 nM SA-APC, 6 nM Eu-Py20 in assay buffer (Perkin Elmer, Boston, MA). Binding to the Europium labeled antibody took place for 40 minutes and HTRF signal was measured on a Fusion plate reader (Perkin Elmer, Boston, MA).
Method for human JAK2: as §3

Regarding `Cc1n[nH]c(C)c1-c1cnn(C2(CC#N)CN(c3cc(F)c(C(=O)N[C@@H](C)C(F)(F)F)cc3F)C2)c1` [Compound 1, 4-[3-(cyanomethyl)-3-(3′,5′-dimethyl-1H,1′H-4,4′-bipyrazol-1-yl)azetidin-1-yl]-2,5-difluoro-N-[(1S)-2,2,2-trifluoro-1-methylethyl]benzamide], in the assay on Normal Human Melanocytes [1], the “suppressed melanocyte proliferation response” value is “partially reversed” and the “spontaneous proliferation compared to the natural melanocyte proliferation rate” value is reported as “significant reduction”. Moreover, the “melanocyte proliferation (% confluence)” value in the assay on Normal Human Melanocytes [1] (following transfer of 20% unactivated T cell media) was “does not directly alter”. Moreover, the “LIF, T cells” value in assay [2] is recorded as “on-target inhibition”. Further, in assay [2] (setting [4]), the “additional mediators not obligated to use JAK1 signaling (growth factors and chemokine), protein T cell media” value is “reduced”; the “inflammatory cytokines that are JAK-STAT dependent, protein T cell media” value is listed as “inhibits”. For the same compound, the “increase of IL-8” value in the assay with Normal Human Melanocytes [3] (melanocyte culture) was around 450%. The “reduction of HGF levels” value in the assay on Normal Human Melanocytes [3] (melanocyte culture supernatants after activated T cell conditioned media) is reported as around 67%. The “inflammatory cytokines that are JAK-STAT dependent, protein melanocyte media” value with Normal Human Melanocytes [3] (setting [5]) was “reduces”. Besides, the “IL-8, protein melanocyte media” value in the assay with Normal Human Melanocytes [3] was “increased”.

Consider `N#CC[C@H](C1CCCC1)n1cc(-c2ncnc3[nH]ccc23)cn1` [ruxolitinib], for which, in the assay on Normal Human Melanocytes [1], the “suppressed melanocyte proliferation response” value is on record as “completely reverse” and the “spontaneous proliferation compared to the natural melanocyte proliferation rate” value is reported as “significant reduction”. Also, the “LIF, T cells” value in assay [2] is given as “on-target inhibition”. Also, in assay [2] (setting [4]), the “IL-2, protein T cell media” value was “upregulated”; the “IL-4, protein T cell media” value is “no effect”; the “IL-5, protein T cell media” value is “no effect”; the “IL-6, protein T cell media” value is given as “no effect”. Further, in assay [2] (setting [4]), the “additional mediators not obligated to use JAK1 signaling (growth factors and chemokine), protein T cell media” value is recorded as “reduced”; the “inflammatory cytokines that are JAK-STAT dependent, protein T cell media” value is reported as “inhibits”. Also, the “IL-8 concentration, CD8+ T cells” value in assay [2] (treatment of CD8+ T cells) is listed as “slightly reduced”. Besides, in the assay on Normal Human Melanocytes [3] (setting [5]), the “IL-10, protein melanocyte media” value was “no effect”; the “IL-13, protein melanocyte media” value is “no effect”; the “inflammatory cytokines that are JAK-STAT dependent, protein melanocyte media” value is “reduces”. The “IL-8, protein melanocyte media” value in the assay on Normal Human Melanocytes [3] is reported as “reduced”.

For the compound `CCNCc1cc(O[C@H]2CC[C@@H](N3CC(CC#N)(n4cc(-c5ncnc6[nH]ccc56)cn4)C3)CC2)nc(C(F)(F)F)c1` [Compound 19, {1-(cis-4-{[4-[(ethylamino)methyl]-6-(trifluoromethyl)pyridin-2-yl]oxy}cyclohexyl)-3-[4-(7H-pyrrolo[2,3-d]pyrimidin-4-yl)-1H-pyrazol-1-yl]azetidin-3-yl}acetonitrile], the half-maximal inhibitory concentration (IC50) against human JAK1 was below 10 nM. For the same compound, the JAK2/JAK1 at human JAK2 is listed as above 10.
